Data reported in US20240307409A1, “ARGININE METHYLTRANSFERASE INHIBITOR AND USE THEREOF” (Cytosinlab Therapeutics Co., Ltd., priority 2021, published 2024).

Experiments:
PRMT1 = PRMT1 (Homo sapiens, UniProt Q99873); experiment: PRMT1 enzyme activity test; format: biochemical; settings: 0.5 nM PRMT1, 3H-SAM, peptide
Description: PRMT1 enzyme activity test were performed in a buffer prepared on the same day 5 consisting of 10 mMTirs-HCl (pH=8.0), 0.01% Tween-20 and 1 mM DTT. The compounds were prepared to the highest inhibitor concentration ultimately required in the 100× reaction with 100% DMSO and then transferred to one well of a 384-well Echo plate (Echo-eligible 384-well polypropylene microplates 2.0, transparent, flat-bottomed) and sequentially diluted in the next well with a 3-fold dilution of 100% DMSO, and so on, with a total of 10 concentrations based on Precision. 100% DMSO was added to two empty wells to serve as control well without compound and control well without enzyme in the same 384-well Echo plate. 250 nL of compound was transferred from each well of the 384-well Echo plate to a 384-well assay plate (384-well polypropylene storage microplate) via the Echo 550 liquid processor. For wells with compounds and control well without compound, a mixture (15 uL) containing PRMT1 enzyme was added to the 384-well assay plate. For control wells without enzyme, the mixture containing the assay buffer (15 uL) was added instead. The compounds were allowed to incubate with PRMT1 for 15 minutes at room temperature, and then a mixture containing ^3H-SAM and peptide (10 uL) was added to start the reaction (final volume=25 uL). The final concentrations of the components were as follows: 0.5 nM for PRMT1, 0.25 uM for ^3H-SAM, 0.1 uM for the peptide, and 1% DMSO. After 120 min of incubation, the assay was terminated by the addition of non-radiolabeled SAM (5 uL) to a final concentration of 125 uM, which diluted 3H-SAM to a level at which its incorporation into the peptide substrate was no longer detected. 25 μL of the reaction solution from the 384-well assay plate was then transferred to a 384-well detection plate (Streptavidin FlashPlate HTS PLUS, high volume, 384 wells). The biotinylated peptide was allowed to bind to the surface of the antibiotic protein streptavidin for at least 60 minutes at room temperature. The Flashplate was then washed three times with 0.1% Tween-20 in a BioTek plate washer. Plates were read on a microplate counter (MicroBeta2) to measure the amount of ^3H-labeled peptide bound to the surface of the detection plate, measured in counts per minute (cpm).
The raw data were copied from the Reader and the inhibition values were calculated in Excel by Equation (1), Equation (1): Inh %=(CPMmax−CPMcmpd)/(CPMmax−CPMmin)*100, wherein the Max signal was obtained from the enzyme-substrate interaction and the Min signal was obtained from the substrate. IC50 values were obtained by fitting the data through equation (2) using XLFit add-in for Excel version […]. Equation (2): Y=Bottom+(Top-Bottom)/(1+((IC50/X)[…])), wherein, Y represents inhibition percentage and X represents compound concentration.

Toledo cells = experiment: Toledo cell proliferation inhibition assay; format: cell-based; settings: six-day assay, CellTiter-Glo
Description: • A. Purpose: to determine the effects of compounds on Toledo cells through a six-day cell proliferation assay. • B. Reagents and materials: • 1. Cell culture medium: RPMI 1640+10% FBS • 2. 384-well cell culture plate (Corning, item #3764) • 3. 0.4% Taipan Blue Staining Solution (Thermo Fisher, item #T10282) • 4. cell counting plate (Thermo Fisher, item #C10228) • 5. 50 ml reagent reservoir (Corning, item #4870) • 6. 50 ml conical sterile polypropylene centrifuge tube (Thermo Fisher, item #339653) • 7. Automatic cell counter (Thermo Fisher, item #AMQAX1000) • 8. CellTiter-Glo Luminescent Cell Viability Detection Reagent (Promega, item #G7572) • 9. SpectraMax i3x Multi-Mode Enzyme Labeling Instrument (Megaman Molecular Instruments, item #5024062) • C. Experimental method • 1. Resuspending the cells with a pipette. • 2. 0.4% Taipan blue staining solution and Toledo cells were mixed in equal proportion, and the cells were counted using an automatic cell counter. • 3. Toledo cells were diluted to a final concentration of 2000 cells per well and transferred to a 50 ml reagent reservoir. • 4. Diluted Toledo cells were added to a 384-well cell culture plate, 40 ul per well. • 5. The cells were shortly centrifuged and settled. • 6. The cells were incubated in a 37° C., 5% CO2 cell culture incubator. • 7. The substrate in the CellTiter-Glo Luminescent Cell Viability Detection Reagent was mixed with the solution. • 8. After six days, the 384-well cell culture plate was taken from the incubator and 20 ul of configured CellTiter-Glo reagent was added to each well. • 9. 384-well cell culture platewasmixed in an orbital shaker for 30 minutes. • 10. Signal of luminescence was detected with a SpectraMax i3x multi-mode enzyme labeling instrument.

PRMT1, sequence (Q99873 whole entry): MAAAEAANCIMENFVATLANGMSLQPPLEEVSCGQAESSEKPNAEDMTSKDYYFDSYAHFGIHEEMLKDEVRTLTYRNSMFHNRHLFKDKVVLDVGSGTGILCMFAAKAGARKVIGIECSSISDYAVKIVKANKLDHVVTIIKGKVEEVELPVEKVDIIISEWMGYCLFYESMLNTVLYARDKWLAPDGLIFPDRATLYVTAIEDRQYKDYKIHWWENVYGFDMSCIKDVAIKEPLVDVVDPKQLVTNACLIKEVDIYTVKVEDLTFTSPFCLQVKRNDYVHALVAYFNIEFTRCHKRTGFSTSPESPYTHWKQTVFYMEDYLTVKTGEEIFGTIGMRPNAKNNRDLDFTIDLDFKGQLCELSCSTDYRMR

SMILES	IC50 (PRMT1) [nM]	IC50 (Toledo cells; Homo sapiens, Toledo, 144 h) [nM]	IC50 (Toledo cells) [nM]
CNCCN(C)Cc1ncccc1C1CCN(c2ccccc2)CC1 [P108]	< 50	< 1000	–
CNCCN(C)Cc1ccc2c(c1C1CCN(c3cccc(C)c3)CC1)CCC(=O)N2 [P155]	< 50	< 1000	–
CNCCN(C)Cc1ccc(C)nc1C1CCN(c2cccc(NC)c2)CC1 [P162]	50 to 500	< 1000	–
CNCCN(C)Cc1ccccc1C1=CCN(C(C)C)CC1 [P028]	< 50	≥ 5000	–
CNCCN(C)Cc1ccc(C)nc1C1CCN(c2cc(C)ccc2F)CC1 [P067]	< 50	< 1000	–
CNCCN(C)Cc1ncccc1C1CCN(C(=O)c2ccccc2)CC1 [P203]	50 to 500	≥ 5000	–
CCOCC1CCN(c2cccnc2CN(C)CCNC)CC1 [P218]	< 50	1000 to 5000	–
CNCCN(C)Cc1ncccc1C1CCN(c2cnc(C#N)nc2)CC1 [P318]	< 50	≥ 5000	–
CNCCN(C)Cc1ncccc1C1CCN(c2ccc(C)cc2)CC1 [P096]	< 50	1000 to 5000	–
CNCCN(C)Cc1ncccc1C1CCN(c2cnccn2)CC1 [P288]	< 50	1000 to 5000	–
CNCCN(C)Cc1ncccc1C1CCN(c2ccc(-c3ccncc3)cc2)CC1 [P133]	< 50	< 1000	–
CNCCN(C)Cc1ncccc1C1CCN(c2cccc(C(F)(F)F)c2)CC1 [P068]	< 50	1000 to 5000	–
CNCCN(C)Cc1ncccc1N1CCc2cnc(C)nc2CC1 [P291]	< 50	≥ 5000	–
CNCCN(C)Cc1ccccc1C1CCC2(CC1)CC(C)(C)CO2 (stereo not drawn) [P040]	< 50	–	< 1000
CNCCN(C)Cc1ccc2[nH]cnc2c1C1CCN(c2cccc(C)c2)CC1 [P189]	< 50	< 1000	–
CNCCN(C)Cc1nc(N)ccc1C1CCN(c2cccc(C)c2)CC1 [P227]	< 50	< 1000	–
CNCCN(C)Cc1ncccc1N1CCN(C(C)C)CC1 [P161]	< 50	< 1000	–
CNCCN(C)Cc1ncccc1N1CCC(Oc2ccccn2)CC1 [P268]	< 50	1000 to 5000	–
CNCCN(C)Cc1ccc(C)nc1N1CCc2ccccc2CC1 [P110, N1-((2-(4,5-dihydro-1H-benzo[d]azepin-3(2H)-yl)-6-methylpyridin-3-yl)methyl)-N1,N2-dimethylethane-1,2-diamine]	< 50	< 1000	–

SMILES	IC50 (PRMT1) [nM]	IC50 (Toledo cells; Homo sapiens, Toledo, 144 h) [nM]	IC50 (Toledo cells) [nM]
CCOCc1cccc(N2CCC(c3cccnc3CN(C)CCNC)CC2)c1 [P134]	< 50	1000 to 5000	–
CCOC(=O)C1(CC)CCN(c2cccnc2CN(C)CCNC)CC1 [P273]	< 50	1000 to 5000	–
CNCCN(C)Cc1ccccc1C1=CCC(OC(C)C)CC1 (stereo not drawn) [P060]	< 50	< 1000	–
CNCCN(C)Cc1ccc(CC(=O)NC)cc1C1CCN(c2cccc(C)c2)CC1 [P140]	< 50	< 1000	–
CNCCN(C)Cc1ncccc1N1CCC(=CC(=O)OC)CC1 [P303]	< 50	1000 to 5000	–
CNCCN(C)Cc1ccc(F)cc1C1CCN(c2cccc(C(C)(C)O)c2)CC1 [P076]	< 50	1000 to 5000	–
CNCCN(C)Cc1ncccc1C1CCN(CC(C)C)CC1 [P113]	< 50	< 1000	–
CNCCN(C)Cc1ccccc1C1CCN(C(C)C)CC1 [P027]	< 50	1000 to 5000	–
CNCCN(C)Cc1ncccc1C1CCN(c2nc(C)nc3ccccc23)CC1 [P239]	< 50	1000 to 5000	–
CNCCN(C)Cc1ncccc1N1CCC(N2CCC(C(=O)NC)CC2)CC1 [P275]	≥ 500	≥ 5000	–
CNCCN(C)Cc1ncccc1C1CCN(c2ccnc(C)n2)CC1 [P277]	< 50	< 1000	–
CNCCN(C)Cc1nc(C)ccc1C1CCN(CCc2ccccc2)CC1 [P059]	< 50	1000 to 5000	–
CNCCN(C)Cc1ncccc1C1CCN(c2cc(C)nc(C)n2)CC1 [P262]	< 50	1000 to 5000	–
CNCCN(C)Cc1ncccc1C1CCN(c2ccc3c(c2)OC(C)(C)O3)CC1 [P234]	50 to 500	1000 to 5000	–
CNCCN(C)Cc1ccc(F)cc1C1CCc2ccccc2CC1 [P011]	< 50	< 1000	–
CCOC[C@H]1CC[C@@H](c2cccnc2CN(C)CCNC)CC1 [P174]	< 50	1000 to 5000	–
CNCCN(C)Cc1ncccc1C1CCN(c2cccc(OC)c2)CC1 [P169]	< 50	< 1000	–
CNCCN(C)Cc1ccc(C(=O)N(C)C)cc1C1CCN(c2cccc(C)c2)CC1 [P101]	50 to 500	1000 to 5000	–
CNCCN(C)Cc1ncccc1N1CCC(Oc2cccc(OC)c2)CC1 [P238]	< 50	< 1000	–

SMILES	IC50 (PRMT1) [nM]	IC50 (Toledo cells; Homo sapiens, Toledo, 144 h) [nM]	IC50 (Toledo cells) [nM]
CCC1CC=C(c2ccccc2CN(C)CCNC)CC1 (stereo not drawn) [P016]	< 50	< 1000	–
CNCCN(C)Cc1ccc2[nH]ncc2c1N1CCc2ccccc2CC1 [P228]	< 50	< 1000	–
CNCCN(C)Cc1ncccc1C1CCN(c2ccncc2)CC1 [P215]	< 50	1000 to 5000	–
CNCCN(C)Cc1ncccc1C1CCN(c2cccnc2)CC1 [P214]	< 50	1000 to 5000	–
CCOCC1(CC)CCN(c2cccnc2CN(C)CCNC)CC1 [P182]	< 50	< 1000	–
CNCCN(C)Cc1ccc(Cl)nc1C1CCN(c2cccc(C)c2)CC1 [P072]	< 50	< 1000	–
CNCCN(C)Cc1ncccc1N1CCC(CC(=O)OC)CC1 [P302]	< 50	1000 to 5000	–
CNCCN(C)Cc1ccc(F)cc1C1CCN(c2nccc(N3CCCC3)n2)CC1 [P172]	< 50	< 1000	–
CNCCN(C)Cc1ncccc1N1CCc2cnc(N(C)C)nc2CC1 [P286]	< 50	1000 to 5000	–
CNCCN(C)Cc1ncccc1N1CCC(Nc2ccccc2)CC1 [P194]	< 50	1000 to 5000	–
CNCCN(C)Cc1ncccc1C1CCN(c2cccc(C(N)=O)c2)CC1 [P297]	< 50	≥ 5000	–
CNCCN(C)Cc1ncccc1N1CCCCC1 [P177]	< 50	1000 to 5000	–
CNCCN(C)Cc1ncccc1N1CCC(Oc2ccccc2OC(F)(F)F)CC1 [P230]	< 50	< 1000	–
CNCCN(C)Cc1ncccc1C1CCN(c2cc(C)ncn2)CC1 [P279]	< 50	1000 to 5000	–
CCOC(=O)C1CCN(c2cccnc2CN(C)CCNC)CC1 [P301]	< 50	1000 to 5000	–
CCOCC1(COCC)CCC(c2nc(N)ccc2CN(C)CCNC)CC1 [P293, N1-((6-amino-2-(4,4-bis(ethoxymethyl)cyclohexyl)pyridin-3-yl)methyl)-N1,N2-dimethyle thane-1,2-diamine]	50 to 500	< 1000	–
CNCCN(C)Cc1ncccc1N1CCC(COc2ccnc(C)n2)CC1 [P306]	50 to 500	1000 to 5000	–
CNCCN(C)Cc1ccccc1C1=CCC2(CCCCO2)CC1 (stereo not drawn) [P055]	< 50	1000 to 5000	–
CNCCN(C)Cc1ncccc1N1CCC(Oc2ccnc(C)n2)CC1 [P314]	< 50	≥ 5000	–
